Patent US5459126A, “Method for decreasing calcium uptake by cells using selected polycations” (California Institute of Technology, priority 1993, dated 1995)
Entries after “also recorded” stand apart in the source; their conditions may differ.

How the values were obtained:
Assay type in all cases: cell-based
[1] = test system: neonatal rat cardiomyocytes; assay: 45Ca uptake by metabolically inhibited cardiomyocytes (iodoacetic acid + 2-deoxyglucose); conditions: for inhibition of calcium uptake: iodoacetic acid and 2-deoxyglucose
Method: (§1) Ca fluxes were measured by an on-line isotopic technique (13). The myocytes were cultured onto scintillant-containing discs which were mounted in a flow cell so that the cells were in direct contact with perfusate. The flow cell was placed between two opposing […] tubes. Cell-associated Ca was then recorded in counts per minute. ^45 Ca^2+ is a low energy beta-emitter. The radioactivity contained within the perfusate is counted with very low efficiency (<5%) whereas that within the cells is counted with an efficiency of 39%. In all of the examples the cells were initially perfused with non isotopic solution to remove any debris. Perfusion with ^45 Ca^2+ containing solution was then commenced at 10 ml/minute and continued until the cells were labelled to asymptote. This normally took 25-30 minutes. The flow cell was then drained and refilled with a solution containing hydrogen peroxide. The cells were then incubated for 60 minutes with continuous recording of ^45 Ca labeling (no flow) prior to washout with non-isotopic perfusate.
(§2) At the end of each experiment the discs were removed from the flow cell, allowed to dry and the cells were scraped onto a pre-weighed piece of filter paper. This was placed in an oven (>100° C.) overnight and then weighed, permitting determination of the cellular dry weight. The specific activity of each isotopic solution was measured in a […] (Beckman Instruments) and cell-associated Ca was expressed in mmoles/kg dry cellular weight. The cell cultures were maintained at 37° C.
Exposure of neonatal rat cardiomycytes to 0.05 mM iodoacetic acid (IAA), as a glycolytic inhibitor, and 0.5 mM 2-deoxyglucose (2-DOG), as a non-metabolizable substrate, produces a graded depletion in intracellular ATP and induces a significant Ca leak. In the following example involving metabolic inhibition, these two compounds were included in the incubation medium. 2-DOG was added directly and IAA was added from a 1 M stock solution, dissolved in water. The concentration in the culture media was 0.5 mM for 2-DOG and 0.05 mM for IAA.

mammalian cells = assay: calcium uptake inhibition in cell culture, noxious stimulus not specified
[2] = test system: neonatal rat cardiomyocytes; assay: 45Ca uptake by cultured cardiomyocytes exposed to hydrogen peroxide (free radical attack), on-line isotopic technique
Method: Protamine is a strong polycationic polypeptide used extensively for heparin reversal after cardiopulmonary bypass. The drug is known to be negatively inotropic. The neonatal rat cardiomyocytes were cultured according to the procedure described by Frank et al.(13).
as §1, with “This normally took 25-30 minutes.” left out
After asymptotic labeling with ^45 Ca, the cells were perfused with a solution containing protamine sulfate at varying concentrations. […] The flow cell was then drained and refilled with a solution containing 50 μM H2 O2 and protamine. The procedure was repeated with protamine in varying concentrations: 1 μM (n=4); 5 μM (n=6) and 50 μM (n=6).
as §2

[3] = calcium leak caused by hydrogen peroxide
[4] = calcium leak caused by metabolic inhibition

CCCCCCCCCCCC[N+](C)(C)C.[Br-] [DDTMA, dodecyltrimethylammonium bromide]
inhibition of calcium uptake ([1]; 50 μM): significant inhibition of calcium uptake

Gentamicin
amount required to obtain any significant level of calcium uptake inhibition (mammalian cells): 1.5 mM

hexamedronium bromide [Polybrene]
inhibition of calcium leak [2, 3]: inhibited the calcium leak
threshold concentration above which inhibition was significant [2, 3]: 25 µM
effect on calcium uptake ([2]; polybrene 25 μM, free radical attack (FIG. 4)): prevention of calcium uptake
inhibition of calcium leak [1, 4]: inhibited the calcium leak
threshold concentration above which inhibition was significant [1, 4]: 25 µM
effect on calcium uptake ([1]; polybrene 25 μM, metabolically inhibited cells (FIG. 5)): prevention of calcium uptake

polymyxin B sulfate [PXB]
inhibition of calcium uptake ([1]; 100 μM): substantially inhibited

protamine
effect on calcium overload (mammalian cells; cell culture concentrations of 5 μM and above): completely prevent calcium overload
effect on Ca overload ([2]; protamine 1 μM, 50 μM H2O2, 60 min incubation): no effect
effect on Ca overload / calcium uptake ([2]; protamine 5 μM, 50 μM H2O2, 60 min incubation): prevention of calcium uptake; also recorded: completely prevented the Ca overload
effect on Ca overload ([2]; protamine concentration above 5 μM (50 μM tested), 50 μM H2O2): no additional effect
effect of protamine on Ca overload after neutralizing its positive charge with heparin ([2]; protamine plus heparin, H2O2): completely inhibited
Ca uptake on perfusion with the agent alone ([2]; protamine sulfate at varying concentrations, after asymptotic 45Ca labeling, before H2O2): did not significantly alter Ca uptake
effect on calcium uptake ([1]; concentrations below 5 μM, 0.05 mM IAA + 0.5 mM 2-DOG): did not exert a significant effect
effect on calcium uptake ([1]; concentrations of 5 μM and higher, 0.05 mM IAA + 0.5 mM 2-DOG): prevention of calcium uptake; also recorded: dramatic drop in calcium uptake
